Data on two molecules can be found in patent US20220276186A1, “OPTIMIZED ANALYTE DERIVATIZATION FOR SYNERGISTIC APPLICATION WITH CRYSTAL SPONGE METHOD” (MERCK PATENT GMBH, priority 2019, published 2022).

The nature of this data set: solubility of the analyte in chloroform (step i of Procedure 1, crystalline sponge method). The data set is classed as physicochemical. The protocol: Procedure 1—absorption of an organic molecule into a single porous crystal. Specifically, procedure 1 describes absorption of an organic molecule into a crystalline sponge comprising [(ZnCl2)3(tpt)2.(cyclohexane)x] (tpt=1,3,5-tris(4-pyridyl)triazine. The organic molecule is first dissolved in trichloro methane (chloroform), i.e., the sample comprises the organic molecule in trichloro methane. The procedure comprises the steps: • i—1 mg of organic molecule is dissolved in 1 ml of chloroform at room temperature. (Proportionally lower quantities can be used, depending on the available amount of analyte.) • ii—A single crystal of [(ZnCl2)3(tpt)2.(cyclohexane)x] (tpt=1,3,5-tris(4-pyridyl)triazine) crystal sponge of about 100 μm diameter, which has been visually inspected under a microscope and found to be without twinning or visible cracks, is placed in a septum screw-top glass vial with conically pointed bottom, submerged in 50 μl of cyclohexane. • iii—4.5 μl of the solution obtained in step (i) (containing 4.5 μg of analyte) is added to the crystalline sponge in cyclohexane as described in step (ii). • iv—The screw-top is closed, and the septum is pierced with a medical-type syringe needle, which may be left in that position to enable slow solvent evaporation. This assembly is incubated at 50° C. for 24 or more hours. […]

With `COc1ccc(-c2coc3cc(OC)ccc3c2=O)cc1` [4′,7-dimethoxy isoflavone], the “solution of analyte in chloroform that could be prepared without difficulty” value (Procedure 1 step i (room temperature)) is given as at least 1 mg in 1 ml. For the molecule `O=c1c(-c2ccc(O)cc2)coc2cc(O)ccc12` [4′,7-dihydroxy isoflavone], the “amount of analyte that could be dissolved in 1 ml chloroform” value (20° C.) is “about 0.005 mg in 1 ml”.
